Assay results from US12691070B2, “Cationic lipids and preparation method thereof” (RiboX Therapeutics HK Limited, priority 2023, dated 2026).

What was measured:
[1] = tested on: BALB/C mice; experiment: In vivo expression, whole-body luminescence (IVIS); settings: cirRNA (SEQ ID NO: 1) LNPs, BALB/C mice
Description: 6-8 week old, female BALB/C mice were injected with 0.05 mg*kg-1 of RNA-LNPs encoding for firefly-luciferase by intravenous injection. At 6 hours post injection, animals were intraperitoneally injected with 15 mg/ml of Luciferin substrate and whole-body luminescence was determined by a bioluminescent in vivo imaging system (IVIS).

[2] = tested on: RAW 264.7 cells; experiment: In vitro toxicity (CellTiter-Glo cell viability), RAW 264.7; format: cell-based; settings: cirRNA (SEQ ID NO: 1) LNPs; RAW 264.7 cells;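 note: percent of untreated cells luminescence signal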
Outline: (§1)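 Viability after a 72 h incubation with 1 μg/mL RNA-LNP formulations was assessed luminometrically using CellTiter-Glo.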

[3] = tested on: Hep G2 cells; experiment: In vitro expression of firefly-luciferase, Hep G2; format: cell-based; settings: cirRNA (SEQ ID NO: 1) LNPs; firefly-luciferase luminescence; Hep G2 cells
Outline: (§2)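 Transfection used 100 ng/mL luciferase-encoding RNA-LNPs; activity in lysates was determined at 72 h.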

[4] = tested on: Hep G2 cells; experiment: In vitro toxicity (CellTiter-Glo cell viability), Hep G2; format: cell-based; settings: cirRNA (SEQ ID NO: 1) LNPs; Hep G2 cells;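 note: percent of untreated cells luminescence signal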
Outline: as §1

[5] = RNA encapsulation efficacy by Quant-IT Ribogreen kit; format: physicochemical; settings: LNP with cirRNA (SEQ ID NO: 1)
Outline: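 Encapsulation efficacy came from Ribogreen fluorescence of LNPs compared with Triton X-100-lysed LNPs. The particles carried luciferase-encoding circular or linear RNA at an ionizable lipid:ribonucleotide ratio of 15 or 6.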

[6] = LNP zeta potential (Zetasizer); format: physicochemical; settings: LNP with cirRNA (SEQ ID NO: 1)
Outline: (§3)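 Ribogreen fluorescence with and without Triton X-100 gave encapsulation as 100% − (intact/lysed) signal; DLS size, PDI and zeta potential measured on a Zetasizer. Particles: 50:10:38.5:1.5 lipid mix, luciferase circRNA or mRNA, lipid:nucleotide 15 or 6, microfluidic assembly at pH 4.5, PBS-dialyzed.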

[7] = LNP size and polydispersity index (PDI) by dynamic light scattering; format: physicochemical; settings: LNP with cirRNA (SEQ ID NO: 1); for Size: in nm (unit assumed)
Outline: as §3

[8] = tested on: RAW 264.7 cells; experiment: In vitro expression of firefly-luciferase, RAW 264.7; format: cell-based; settings: cirRNA (SEQ ID NO: 1) LNPs; firefly-luciferase luminescence; RAW 264.7 cells
Outline: as §2

| SMILES | In vivo Expression (Whole Body) [1] | In vitro Viability RAW [2] | In vitro Expression HepG2 [3] | In vitro Viability HepG2 [4] | Encapsulation Efficiency % [5] | Zeta (mV) [6] | PDI [7] | Size [7] | In vitro Expression RAW [8] |
| --- | --- | --- | --- | --- | --- | --- | --- | --- | --- |
| CCCCCCCCCC(=O)OCCCCCCCN(CCCCCCCCOC(=O)C(CCCCCC)CCCCCCCC)CCCOC(=O)NCCN(C)C (stereo not drawn) [Lipid 359] | 1.85E+06 | 8% | 9.26E+04 | 122% | 89% | 6.547 mV | 0.337 | 113.9 | 2.38E+03 |
| CCCCCCCCCC(=O)OCCCCCCCN(CCCCCCCCOC(=O)C(CCCCCC)CCCCCCCC)CCCOC(=O)NCc1ncc[nH]1 (stereo not drawn) [Lipid 360] | 7.50E+07 | 86% | 1.22E+05 | 113% | 85% | −2.27 mV | 0.2143 | 82.84 | 1.63E+05 |
| CCCCCCCCCC(=O)OCCCCCCCN(CCCCCCCCOC(=O)C(CCCCCC)CCCCCCCC)CCCOC(=O)NCCCN(CC)CC (stereo not drawn) [Lipid 361] | 1.10E+06 | 4% | 1.62E+05 | 114% | 88% | 8.107 mV | 0.438 | 91.91 | 2.97E+03 |
| CCCCCCCCCC(=O)OCCCCCCCN(CCCCCCCCOC(=O)C(CCCCCC)CCCCCCCC)CCCOC(=O)NCCN1CCN(C)CC1 (stereo not drawn) [Lipid 362] | 1.68E+06 | 0% | 3.82E+04 | 106% | 89% | 11.87 mV | 0.3944 | 88.25 | 1.99E+03 |
| CCCCCCCCC(CCCCCCCC)OC(=O)CCCCCCCN(CCCCCCCCOC(=O)C(CCCCCC)CCCCCCCC)CCCNCCN(C)C (stereo not drawn) [Lipid 363] | 2.22E+06 | 65% | 3.17E+05 | 112% | 92% | 5.356 mV | 0.2547 | 130.7 | 9.15E+03 |
| CCCCCCCCCCC(CCCCCCCC)COC(=O)CCCCCN(CCCCCCCCOC(=O)C(CCCCCC)CCCCCCCC)CCCOC(=O)NCCN(C)C (stereo not drawn) [Lipid 364] | 4.73E+06 | 64% | 1.11E+06 | 81% | 89% | 0.2395 mV | 0.2481 | 113.5 | 9.94E+04 |
| CCCCCCCCCCC(CCCCCCCC)COC(=O)CCCCCN(CCCCCC(=O)OCC(CCCCCCCC)CCCCCCCCCC)CCCOC(=O)NCc1ncc[nH]1 (stereo not drawn) [Lipid 365] | 1.32E+08 | 88% | 3.17E+05 | 109% | 92% | −2.341 mV | 0.1303 | 72.69 | 3.87E+04 |
| CCCCCCCCCCC(CCCCCCCC)COC(=O)CCCCCN(CCCCCC(=O)OCC(CCCCCCCC)CCCCCCCCCC)CCCOC(=O)NCCCN(CC)CC (stereo not drawn) [Lipid 366] | 3.26E+06 | 99% | 3.39E+05 | 84% | 92% | −0.4163 mV | 0.2572 | 118.4 | 2.01E+04 |
| CCCCCCCCCCC(CCCCCCCC)COC(=O)CCCCCN(CCCCCC(=O)OCC(CCCCCCCC)CCCCCCCCCC)CCCOC(=O)NCCN1CCN(C)CC1 (stereo not drawn) [Lipid 367] | 1.74E+06 | 90% | 5.88E+05 | 85% | 91% | 0.7313 mV | 0.2544 | 131.6 | 2.48E+04 |
| CCCCCCCCCCC(CCCCCCCC)COC(=O)CCCCCN(CCCCCC(=O)OCC(CCCCCCCC)CCCCCCCCCC)CCCOC(=O)NCCNC(C)C (stereo not drawn) [Lipid 368] | 4.18E+06 | 67% | 1.22E+06 | 68% | 92% | 3.421 mV | 0.2875 | 130.2 | 1.18E+05 |
| CCCCCCCCCCC(CCCCCCCC)COC(=O)CCCCCN(CCCCCC(=O)OCC(CCCCCCCC)CCCCCCCCCC)CCCOC(=O)NCCN1CCC1 (stereo not drawn) [Lipid 372] | 1.10E+06 | 57% | 4.98E+03 | 42% | 92% | 4.685 mV | 0.2663 | 118.2 | 3.30E+02 |
| CCCCCCCCCCC(CCCCCCCC)COC(=O)CCCCCN(CCCCCC(=O)OCC(CCCCCCCC)CCCCCCCCCC)CCCOC(=O)NCCN1CCCCCC1 (stereo not drawn) [Lipid 373] | 5.62E+06 | 91% | 5.98E+04 | 63% | 92% | −3.695 mV | 0.2353 | 92.65 | 2.32E+04 |
| CCCCCCCCC(CCCCCC)C(=O)OCCCCCCCCN(CCCCCCCCOC(=O)C(CCCCCC)CCCCCCCC)CCCOC(=O)NCCN1CCN(C)CC1 (stereo not drawn) [Lipid 377] | 8.84E+06 | 85% | 2.55E+06 | 71% | 93% | 2.594 mV | 0.2338 | 112.8 | 1.05E+05 |
| CCCCCCCCC(CCCCCC)C(=O)OCCCCCCCCN(CCCCCCCCOC(=O)C(CCCCCC)CCCCCCCC)CCCOC(=O)NCCCN(C)C (stereo not drawn) [Lipid 378] | 8.79E+06 | 75% | 3.39E+06 | 26% | 93% | 6.729 mV | 0.2637 | 130.6 | 6.58E+05 |
| CCCCCCCCC(CCCCCC)C(=O)OCCCCCCCCN(CCCCCCCCOC(=O)C(CCCCCC)CCCCCCCC)CCCOC(=O)NCCN1CCCC1 (stereo not drawn) [Lipid 379] | 2.86E+07 | 72% | 1.16E+07 | 45% | 92% | 3.38 mV | 0.1919 | 117.2 | 1.60E+06 |
